Reference: patent US12329773B2, “Oxygen reactive polymers for treatment of traumatic brain injury” (University of Washington, priority 2015, dated 2025)

Assay: MR imaging of uptake, retention and clearance in CCI mouse model of TBI
Assay type: in vivo, mice
Method: 8-10 Week old C57/B6 mice were induced with 4% isoflurane gas via inhalation and maintained at 1.5-2%, then placed upon a warm heating pad set to 100° F. to maintain body temperature. Prior to surgery, hair on the top of the skull was trimmed and epilated via shears and Nair (Church and Dwight Co., Inc., Princeton, NJ). Lidocaine (0.05 mL at a 5 mg/mL) and bupivacaine (0.05 mL at 0.3 mg/mL) were injected subcutaneously under the scalp. After 5 min to allow anesthetic to absorb, a midline incision was made in the skin from lambda to bregma. Fascia and skin were retracted and a small hole drilled using a high speed surgical drill over the left frontoparietal cortex (3 mm anterior and 2 mm left from lambda), and a 3 mm circular cranial window created using rongeurs. A pneumatically-operated controlled cortical impactor (CCI) with a 3 mm convex tip was used to impact the brain normal to the dura surface at a depth of 1 mm at 6 m/s and remained in the brain for 150 ms. Incisions were closed using skin glue and mice given an intraperitoneal injection of buprenorphine (0.1 mg/kg). Mice were monitored under a heat lamp until awake.
Three consecutive T1w images were acquired with RARE (rapid acquisition with refocused echoes) pulse sequence: TR/TE=667.5/4.5 ms, matrix=256×128, field of view (FOV)=25.6×25.6 mm, number of averages (NA)=1, 15 slices and 1 mm slice thickness. […] A series of T1w images were acquired using a fast low angle shot (FLASH) pulse sequence. There were three—four consecutive T1w sequences acquired both pre and post injection—one set of three pre injection acquisitions and then three sets of four post injection acquisitions with an additional set post the following day (4 post imaging total). These images utilized a 3 dimensional (D) FLASH sequence: TR/TE=20/3.87 ms, flip angle=20°, matrix=160×160×30, FOV=25.6×25.6 mm, NA=2, 30 slices and 3D slab of 15 mm. For the first group of mice, T2w images (TR/TE=5500/50 ms) were selected from RARE pulse sequence with (TR=214.3, 500, 1000, 1500, 3000 and 5500 ms and TE=10, 30, 50, 70 and 90 ms, matrix=256×128, FOV=25.6×25.6 mm, NA=1, 2 slices and 1 mm slice thickness. For the second group of mice, T2w images (TR/TE=4000/37.7 ms) were selected from multi-slice and multi-echo imaging conducted with TR/TE=4000/6.3−75.4 ms (12 echoes with 6.3 ms spacing), matrix=256×128, NA=1, 15 slices and 1 mm slice thickness.

| blood (circulation) half-life (mouse, in vivo) | half-life in the ventricles (mouse, in vivo) | Compound | accumulation / contrast enhancement in damaged brain (T1 contrast) (mouse, in vivo) | accumulation in damaged brain (T1 contrast) (mouse, in vivo) | half-life in damaged brain (resident half-life) (mouse, in vivo) | retention in damaged brain (mouse, in vivo) | retention within damaged brain (mouse, in vivo) | accumulation / contrast enhancement in damaged brain (T1 contrast) (injected 3 hrs post-CCI) | blood half-life (injected post-CCI, intravascular MR signal) |
| --- | --- | --- | --- | --- | --- | --- | --- | --- | --- |
| about 1.1 hrs | ~40 h | poly(MEMcoO950coMNHS) [ORP] | showed accumulation in damaged brain after 18 hrs | accumulates in the damaged region of brain | greater than 14 hrs | at least 18 hrs | at least 24 hrs | – | – |
| – | – | O=C([O-])CN(CCN(CC(=O)[O-])CC(=O)O)CCN(CC(=O)[O-])CC(=O)O.[Gd+3] [Gd-DTPA, reference compound] | – | – | – | – | – | displayed contrast enhancement in damaged brain | 0.6 h |
